# According to patent US8916499B2, “Herbicidal compositions comprising 4-amino-3-chloro-5-fluoro-6-(4-chloro-2-fluoro-3-methoxyphenyl) pyridine-2-carboxylic acid or a derivative thereof and a protoporphyrinogen oxidase inhibitor” (Dow AgroSciences LLC, priority 2012, dated 2014):
# System: PAPRH
# Assay: Postemergence foliar herbicidal activity of mixtures in cereal crops, greenhouse (Example III)
# Type: in vivo, Papaver rhoeas L.
# Details: foliar-applied
# Method: Seeds of the desired test plant species were planted in Sun Gro MetroMix® 306 planting mixture, which typically has a pH of 6.0 to 6.8 and an organic matter content of about 30 percent, in plastic pots with a surface area of 103.2 square centimeters (cm^2). When required to ensure good germination and healthy plants, a fungicide treatment and/or other chemical or physical treatment was applied. The plants were grown for 7-36 days in a greenhouse with an approximate 14 hour photoperiod which was maintained at about 18° C. during the day and about 17° C. during the night. Nutrients and water were added on a regular basis and supplemental lighting was provided with overhead metal halide 1000-Watt lamps as necessary. The plants were employed for testing when they reached the second or third true leaf stage.
# Treatments consisted of the benzyl ester of 4-amino-3-chloro-5-fluoro-6-(4-chloro-2-fluoro-3-methoxy-phenyl)pyridine-2-carboxylic acid (Compound A), formulated as an SC, a second cereal herbicide alone and then both in combination.
# Other herbicidal components were applied on an active ingredient basis and included PSII-inhibiting herbicides.
# Measured aliquots of benzyl ester of 4-amino-3-chloro-5-fluoro-6-(4-chloro-2-fluoro-3-methoxy-phenyl)pyridine-2-carboxylic acid (Compound A) were placed in 25 milliliter (mL) glass vials and diluted in a volume of 1.25% (v/v) Agri-Dex® crop oil concentrate to obtain stock solutions. Compound requirements are based upon a 12 mL application volume at a rate of 187 liters per hectare (L/ha). Spray solutions of the second cereal herbicide and experimental compound mixtures were prepared by adding the stock solutions to the appropriate amount of dilution solution to form 12 mL spray solution with active ingredients in two- and three-way combinations. Formulated compounds were applied to the plant material with an overhead Mandel track sprayer equipped with an 8002E nozzle calibrated to deliver 187 L/ha over an application area of 0.503 square meters (m^2) at a spray height of 18 inches (46 cm) above average plant canopy. Control plants were sprayed in the same manner with the solvent blank.
# The treated plants and control plants were placed in a greenhouse as described above and watered by sub-irrigation to prevent wash-off of the test compounds. After 20-22 days, the condition of the test plants as compared with that of the control plants was determined visually and scored on a scale of 0 to 100 percent where 0 corresponds to no injury and 100 corresponds to complete kill.
# Colby's equation was used to determine the herbicidal effects expected from the mixtures (Colby, S. R. 1967. Calculation of the synergistic and antagonistic response of herbicide combinations. Weeds 15:20-22.).
# The following equation was used to calculate the expected activity of mixtures containing two active ingredients, A and B: Expected=A+B−(A×B/100)
compound,measurement,setting,value
"COc1c(Cl)ccc(-c2nc(C(=O)OCc3ccccc3)c(Cl)c(N)c2F)c1F [Compound A Benzyl Ester, benzyl ester of 4-amino-3-chloro-5-fluoro-6-(4-chloro-2-fluoro-3-methoxy-phenyl)pyridine-2-carboxylic acid]",Visual Weed Control (%) - 21 DAA PAPRH Obs,5 g ai/ha alone,28%
same,Visual Weed Control (%) - 21 DAA PAPRH Obs,10 g ai/ha alone,35%
